# According to patent US9708314B2, “Heterocyclic amide compound” (NISSAN CHEMICAL INDUSTRIES, LTD., priority 2013, dated 2017):
# Legend:
# Assay type in all cases: in vivo
# [1] = system: Echinochloa oryzacola Vasing.; assay: Test Example 2: herbicidal activity, application during weed generation in submerged conditions; details: Eighteenth Table; application herbicide amount 320 g/ha
# Summary of the method: (§1)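 Post-emergence application under submerged conditions: water-diluted emulsion dosed onto the water surface (g/ha) when weeds reach one- to two-leaf stage. Soil flooded to 4 cm; greenhouse 25–30 °C. Herbicidal ratio graded in six classes, 0 (≤5%) to 5 (≥90%), at three weeks.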
# Monochoria vaginalis = assay: as above; details: Eighteenth Table; application herbicide amount 320 g/ha
# Summary of the method: as §1
# Scirpus juncoides = assay: as above; details: Eighteenth Table; application herbicide amount 320 g/ha
# Summary of the method: as §1
# Abutilon theophrasti = assay: Test Example 4: herbicidal effect by application to foliage (diluvial soil, plastic box)
# Summary of the method: (§2)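 Emulsion-formulated compound, diluted to a predetermined g/ha dose, applied by small sprayer to leaves and stems of 14-day-old seedlings grown in sterilized diluvial soil. Effect rated on 0–5 herbicidal-ratio scale three weeks on.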
# Alopecurus myosuroides = assay: as above
# Summary of the method: as §2
# Apera spica-venti. = assay: as above
# Summary of the method: as §2
# Avena fatua = assay: as above
# Summary of the method: as §2
# Chenopodium album = assay: as above
# Summary of the method: as §2
# Digitaria ciliaris = assay: as above
# Summary of the method: as §2
# [2] = system: Echinochloa crus-galli var. crus-galli; assay: as above
# Summary of the method: as §2
# Galium spurium = assay: as above
# Summary of the method: as §2
# Lolium multiflorum Lam. = assay: as above
# Summary of the method: as §2
# Setaria viridis = assay: as above
# Summary of the method: as §2
# Veronica persica = assay: as above
# Summary of the method: as §2
# [3] = system: Beta vulgaris ssp. vulgaris; assay: Test Example 4: effect on crop by application to foliage (diluvial soil, plastic box)
# Summary of the method: as §2
# Brassica campestris L. = assay: as above
# Summary of the method: as §2
# Glycine max = assay: as above
# Summary of the method: as §2
# Triticum aestivum = assay: as above
# Summary of the method: as §2
# Zea mays = assay: as above
# Summary of the method: as §2
# [4] = system: directly sowed Oryza sativa; assay: as above
# Summary of the method: as §2
# [5] = application to foliage, application herbicide amount 320 g/ha
# [6] = Application herbicide amount 320 g/ha
# [7] = Application herbicide amount 320 g/ha, effect on crop
smiles,measurement,setting,value
COc1ccc(-c2nnc3c(C(=O)Nc4nnc(C)o4)ccc(C(F)(F)F)n23)cc1 [1-016],A (Echinochloa oryzicola Vasing.) herbicidal ratio grade,[1],3 (Herbicidal ratio of 40% or more and less than 70%)
same,C (Monochoria vaginalis) herbicidal ratio grade,Monochoria vaginalis,0 (Herbicidal ratio of 5% or less (almost no effect))
same,B (Scirpus juncoides) herbicidal ratio grade,Scirpus juncoides,0 (Herbicidal ratio of 5% or less (almost no effect))
same,M (Abutilon theophrasti) herbicidal effect,Abutilon theophrasti; [5],5 (Herbicidal ratio of 90% or more (almost completely withered))
same,J (Alopecurus myosuroides) herbicidal effect,Alopecurus myosuroides; [5],1 (Herbicidal ratio of 5% or more and less than 20%)
same,L (Apera spica-venti.) herbicidal effect,Apera spica-venti.; [5],0 (Herbicidal ratio of 5% or less (almost no effect))
same,I (Avena fatua) herbicidal effect,Avena fatua; [5],1 (Herbicidal ratio of 5% or more and less than 20%)
same,O (Chenopodium album) herbicidal effect,Chenopodium album; [5],5 (Herbicidal ratio of 90% or more (almost completely withered))
same,F (Digitaria ciliaris) herbicidal effect,Digitaria ciliaris; [5],4 (Herbicidal ratio of 70% or more and less than 90%)
same,H (Echinochloa crus-galli var. crus-galli) herbicidal effect,[2]; [5],5 (Herbicidal ratio of 90% or more (almost completely withered))
same,Q (Galium spurium) herbicidal effect,Galium spurium; [5],2 (Herbicidal ratio of 20% or more and less than 40%)
same,K (Lolium multiflorum Lam.) herbicidal effect,Lolium multiflorum Lam.; [5],1 (Herbicidal ratio of 5% or more and less than 20%)
same,G (Setaria viridis) herbicidal effect,Setaria viridis; [5],2 (Herbicidal ratio of 20% or more and less than 40%)
same,R (Veronica persica) herbicidal effect,Veronica persica; [5],4 (Herbicidal ratio of 70% or more and less than 90%)
same,f (Beta vulgaris ssp. vulgaris) effect on crop,[3]; [5],5 (Herbicidal ratio of 90% or more (almost completely withered))
same,g (Brassica campestris L.) effect on crop,Brassica campestris L.; [5],3 (Herbicidal ratio of 40% or more and less than 70%)
same,c (Glycine max) effect on crop,Glycine max; [5],0 (Herbicidal ratio of 5% or less (almost no effect))
same,e (Triticum aestivum) effect on crop,Triticum aestivum; [5],0 (Herbicidal ratio of 5% or less (almost no effect))
same,b (Zea mays) effect on crop,Zea mays; [5],0 (Herbicidal ratio of 5% or less (almost no effect))
same,d (directly sowed Oryza sativa) effect on crop,[4]; [5],0 (Herbicidal ratio of 5% or less (almost no effect))
COc1cccc(Nc2nnc3c(C(=O)Nc4nnc(C)o4)ccc(C(F)(F)F)n23)n1 [1-102],A (Echinochloa oryzicola Vasing.) herbicidal ratio grade,[1],1 (Herbicidal ratio of 5% or more and less than 20%)
same,C (Monochoria vaginalis) herbicidal ratio grade,Monochoria vaginalis,1 (Herbicidal ratio of 5% or more and less than 20%)
same,B (Scirpus juncoides) herbicidal ratio grade,Scirpus juncoides,1 (Herbicidal ratio of 5% or more and less than 20%)
same,M,Abutilon theophrasti; [6],3 (Herbicidal ratio of 40% or more and less than 70%)
same,J,Alopecurus myosuroides; [6],0 (Herbicidal ratio of 5% or less (almost no effect))
same,L,Apera spica-venti.; [6],0 (Herbicidal ratio of 5% or less (almost no effect))
same,I,Avena fatua; [6],0 (Herbicidal ratio of 5% or less (almost no effect))
same,O,Chenopodium album; [6],5 (Herbicidal ratio of 90% or more (almost completely withered))
same,F,Digitaria ciliaris; [6],3 (Herbicidal ratio of 40% or more and less than 70%)
same,H,[2]; [6],4 (Herbicidal ratio of 70% or more and less than 90%)
same,Q,Galium spurium; [6],2 (Herbicidal ratio of 20% or more and less than 40%)
same,K,Lolium multiflorum Lam.; [6],0 (Herbicidal ratio of 5% or less (almost no effect))
same,G,Setaria viridis; [6],3 (Herbicidal ratio of 40% or more and less than 70%)
same,R,Veronica persica; [6],4 (Herbicidal ratio of 70% or more and less than 90%)
same,f,[3]; [7],4 (Herbicidal ratio of 70% or more and less than 90%)
same,g,Brassica campestris L.; [7],2 (Herbicidal ratio of 20% or more and less than 40%)
same,c,Glycine max; [7],0 (Herbicidal ratio of 5% or less (almost no effect))
same,e,Triticum aestivum; [7],0 (Herbicidal ratio of 5% or less (almost no effect))
same,b,Zea mays; [7],0 (Herbicidal ratio of 5% or less (almost no effect))
same,d,[4]; [7],1 (Herbicidal ratio of 5% or more and less than 20%)
